Measurements reported in patent publication US20090023794A1, “Use of Sumoylation Inhibitors for the Treatment of Neurodegenerative Disease” (Caritas St. Elizabeth Medical Center of Boston, Inc., priority 2005, published 2009).

Legend:
histone acetylation = test: Histone acetylation in CHP-212 cells by western blotting; format: cell-based, human; conditions: data not shown
[1] = tested on: tyrosine hydroxylase expression in CHP-212 cells; test: Restoration of tyrosine hydroxylase expression by HDAC inhibitors in CHP-212 cells transfected with DJ-1 siRNA (western blot); format: cell-based, human; conditions: for reversal of tyrosine hydroxylase inhibition caused by DJ-1 inactivation (in words): CHP-212 cells transfected with DJ-1 siRNA/RNAi
Source text: Various acetylated histone species from CHP-212 cells transfected with control or DJ-1 RNAi for 4 days were immunoprecipitated with specific antibodies, and amplified with primers specifically for the human tyrosine hydroxylase promoter using semi-quantitative PCR. Reactions were stopped at indicated PCR cycles for gel analysis. Input: 0.5% of input DNA before IP. The inhibition of endogenous tyrosine hydroxylase and DJ-1 by the DJ-1-specific siRNA for the ChIP assays was confirmed by Western blots. […] after the transfection of control (CTR) or DJ-1 RNAi constructs, CHP-212 cells were treated with increasing amount of sodium butyrate for additional 88 hours before harvesting, with 2 changes of fresh medium containing sodium butyrate during the course of the experiment. […] The protein levels of TH, DJ-1 and β-actin were determined by western blotting.
To validate the role of histone acetylation in DJ-1-mediated regulation of the human tyrosine hydroxylase promoter, CHP-212 cells were transfected with control or DJ-1-specific siRNA. ChIP assays were performed with antibodies that specifically recognize acetylated histones, and the human tyrosine hydroxylase promoter sequences were amplified using semi-quantitative PCR. Consistent with the concurrent inhibition of the tyrosine hydroxylase protein expression, DJ-1 inactivation caused a decrease in the amount of tyrosine hydroxylase promoter-associated acetylated histones, indicating transcriptional silencing (FIG. 6A). Since DJ-1 acted as a transcriptional co-activator eventually promoting histone acetylation, it was likely that chemical inhibitors of HDAC would reverse the effects of DJ-1 inactivation. Therefore, CHP-212 cells were pre-transfected with control or DJ-1-specific siRNA, and the cells were treated with increasing amounts of the HDAC inhibitor sodium butyrate. Sodium butyrate restored tyrosine hydroxylase expression (to 88% of the levels in the control at 0.2 mM) even in the presence of DJ-1 siRNA (FIG. 6B). […]

| Structure (SMILES) | histone acetylation (in words) (histone acetylation) | tyrosine hydroxylase expression restored, relative to the levels in the control ([1]; 0.2 mM, CHP-212 cells in the presence of DJ-1 siRNA, western blot) | reversal of tyrosine hydroxylase inhibition caused by DJ-1 inactivation (in words) [1] |
| --- | --- | --- | --- |
| CCCC(=O)[O-].[Na+] [sodium butyrate] | increased histone acetylation | 88 % of the levels in the control | restoration of tyrosine hydroxylase expression |
| CC(/C=C/C(=O)NO)=C\[C@@H](C)C(=O)c1ccc(N(C)C)cc1 [trichostatin A] |  |  | similarly reversed the tyrosine hydroxylase inhibition |
